Measurements from patent US7740882B2, “Enhanced oral and transcompartmental delivery of therapeutic or diagnostic agents” (priority 2001, dated 2010).
Where “and” joins values, the source holds several entries; their conditions need not be identical. Identical values can stand only once. Entries after “also recorded” stand apart in the source; their conditions may differ. Like-named read-outs stand apart in the source and are kept apart here.

How the values were obtained:
[1] = system: colonic epithelial NCM460 cells; conditions: read-out: Km of biotin transport; literature; cited from earlier work
Caco-2 cell monolayers = test: Absorptive (AP to BL) transport across Caco-2 cell monolayers; conditions: Caco-2 absorptive transport
Protocol: (§4) Caco-2 Cell Transport Studies An Ussing-type diffusion chamber system (Harvard Apparatus, Natick, Mass.) was used to perform transport studies. The apical solution was a MES Ringer's buffer (pH 6.5) consisting of 114.0 mM NaCl, 5.0 mM KCl, 1.1 mM MgSO4, 1.25 mM CaSO4, and 15 mM 2-(N-morpholino)ethanesulfonic acid (MES). The basolateral solution was a Ringer's buffer (pH 7.4) consisting of 114.0 mM NaCl, 5.0 mM KCl, 1.65 mM Na2HPO4, 0.3 mM NaH2PO4, 25 mM NaHCO3, 1.1 mM MgSO4, and 1.25 mM CaSO4. Both buffers contained 25 mM glucose and were adjusted to 290 mOsm/kg using a vapor pressure osmometer (Wescor Inc, Logan, Utah). For transport experiments using filters with cell monolayers, the inserts were rinsed with Ringer's buffet containing 25 mM glucose three times over a 20 min period at room temperature. The TEER was measured for each monolayer before it was mounted onto the diffusion chamber, which was pre-warmed to 37° C. by placement on the heating blocks. The volume of each half-chamber was 5 ml and the surface area of the Snapwell™ filters available for drug transport was 1 cm^2. […] The donor solution consisted of radiolabeled permeant in the apical buffer [apical (AP) to basolateral (BL) study]. Starting at 30 min, samples were taken from the receptor chamber every 15 min until the end of the experiment (105 min). A minimum of three monolayers was used to determine the permeability of test compound in each study and sample analysis was performed using scintillation counting (Perkin Elmer, Gaithersburg, Md.).
(§5) The Michaelis-Menten kinetic parameters of Caco-2 and CHO cell transport were then estimated using non-linear regression.
(§6) Prior to experimentation, diffusion chambers mounted with the Snapwells™ containing Caco-2 cells were equilibrated at 5° C., 10° C., 15° C., 25° C. and 37° C.
(§7) [formula] where Pe is the effective permeability of the substrate transported, Cs is the substrate concentration and Pm and Pc represent the passive and carrier-mediated component of the permeability. All data were initially fitted to a 3-parameter model (Pc, Pm, Km for Caco-2 studies, Jmax, Pm, Km for CHO studies).
(§8) Caco-2 Cell Transport Studies An Ussing-type diffusion chamber system (Harvard Apparatus, Natick, Mass.) was used to perform transport studies. The apical solution was a MES Ringer's buffer (pH 6.5) consisting of 114.0 mM NaCl, 5.0 mM KCl, 1.1 mM MgSO4, 1.25 mM CaSO4, and 15 mM 2-(N-morpholino)ethanesulfonic acid (MES). The basolateral solution was a Ringer's buffer (pH 7.4) consisting of 114.0 mM NaCl, 5.0 mM KCl, 1.65 mM Na2HPO4, 0.3 mM NaH2PO4, 25 mM NaHCO3, 1.1 mM MgSO4, and 1.25 mM CaSO4. Both buffers contained 25 mM glucose and were adjusted to 290 mOsm/kg using a vapor pressure osmometer (Wescor Inc, Logan, Utah). For transport experiments using filters with cell monolayers, the inserts were rinsed with Ringer's buffer containing 25 mM glucose three times over a 20 min period at room temperature. The TEER was measured for each monolayer before it was mounted onto the diffusion chamber, which was pre-warned to 37° C. by placement on the heating blocks.

[2] = system: human intestinal brush-border membrane vesicles; conditions: read-out: Km of biotin transport; literature; cited from earlier work
SMVT = molecular target: T1, SMVT (Homo sapiens, UniProt Q9Y289); test: Inhibition of substrate uptake in CHO/hSMVT cells by 50 μM SMVT substrates; type: in vitro ADME; design: expressed in transfected cells; host or cells: CHO cells (ATCC), transient Lipofectamine transfection; plasmid was a gift of Dr. Puttur D. Prasad
T1 sequence (Q9Y289 1-635): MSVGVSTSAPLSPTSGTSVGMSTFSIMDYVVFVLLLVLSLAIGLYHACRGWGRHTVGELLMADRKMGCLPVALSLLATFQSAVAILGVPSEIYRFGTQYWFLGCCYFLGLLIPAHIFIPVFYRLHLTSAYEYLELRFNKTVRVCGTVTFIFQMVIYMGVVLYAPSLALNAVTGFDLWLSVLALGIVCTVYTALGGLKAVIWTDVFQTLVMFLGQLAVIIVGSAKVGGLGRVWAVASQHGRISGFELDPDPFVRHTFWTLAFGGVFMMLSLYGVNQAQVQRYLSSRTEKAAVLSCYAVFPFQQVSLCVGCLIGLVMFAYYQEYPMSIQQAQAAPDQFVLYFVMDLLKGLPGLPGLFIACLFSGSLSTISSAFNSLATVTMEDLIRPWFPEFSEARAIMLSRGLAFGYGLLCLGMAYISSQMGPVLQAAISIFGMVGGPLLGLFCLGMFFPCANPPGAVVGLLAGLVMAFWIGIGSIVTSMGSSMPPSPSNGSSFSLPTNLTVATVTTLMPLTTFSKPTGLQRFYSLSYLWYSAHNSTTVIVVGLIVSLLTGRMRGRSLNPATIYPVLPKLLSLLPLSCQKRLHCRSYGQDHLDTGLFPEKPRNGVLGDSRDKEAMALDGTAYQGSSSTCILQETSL

CHO/pSPORT cells = test: Non-specific uptake in vector-transfected control CHO/pSPORT cells
Protocol: CHO Cell Uptake Studies CHO cells transiently transfected with hSMVT (CHO/hSMVT) were washed twice with 25 mM uptake buffer, containing 25 mM Hepes/Tris pH 7.5, 140 mM NaCl, 5.4 mM KCl, 1.8 CaCl2, 0.8 mM MgSO4 and 5 mM glucose, approximately 48 hours post-transfection. Subsequently, the cells were incubated with the permeant at 37° C. for 10 minutes. Uptake was stopped by washing the cells thrice with ice-cold buffer. Non-specific uptake was measured in parallel experiments with the control pSPORT vector-transfected CHO cells. Finally, the cells were solubilized by 0.1% v/v Triton X-100, and 0.6 ml was used for scintillation counting. […] Bovine serum albumin was used as the standard.
CHO Cell Uptake Studies CHO cells transiently transfected with hSMVT were washed twice with 25 mM uptake buffer, containing 25 mM Hepes/Tris pH 7.5, 140 mM NaCl, 5.4 mM KCl, 1.8 CaCl2, 0.8 mM MgSO4 and 5 mM glucose. […] Non-specific uptake was measured in parallel experiments with the control pSPORT vector-transfected CHO cells. […] From the remaining volume, 10 μl of solution was taken from each well and protein concentration was determined using the Bio-Rad reagent according to the manufacturer's instructions. […]
CHO Cell Uptake Studies. […] Non-specific uptake was measured in parallel experiments with the control pSPORT vector-transfected CHO cells. […]

[3] = molecular target: T2, human sodium dependent multivitamin transporter, hSMVT (Homo sapiens, UniProt Q9Y289); test: Uptake in CHO cells transiently transfected with hSMVT (CHO/hSMVT); conditions: for Pm, passive uptake component: CHO/hSMVT cellular uptake, (S.D), n = 3
T2 sequence (Q9Y289 1-635): T1 sequence (Q9Y289 1-635)
Protocol: (§1) CHO Cell Uptake Studies CHO cells transiently transfected with hSMVT (CHO/hSMVT) were washed twice with 25 mM uptake buffer, containing 25 mM Hepes/Tris pH 7.5, 140 mM NaCl, 5.4 mM KCl, 1.8 CaCl2, 0.8 mM MgSO4 and 5 mM glucose, approximately 48 hours post-transfection. Subsequently, the cells were incubated with the permeant at 37° C. for 10 minutes. Uptake was stopped by washing the cells thrice with ice-cold buffer. Non-specific uptake was measured in parallel experiments with the control pSPORT vector-transfected CHO cells. Finally, the cells were solubilized by 0.1% v/v Triton X-100, and 0.6 ml was used for scintillation counting. From the remaining volume, 10 μl of solution was taken from each well and protein concentration was determined using the Bio-Rad reagent according to the Bradford technique [M. Bradford, A rapid and sensitive method of quantitation of microgram quantities of protein utilizing the principle of protein-dye binding, Anal. Biochem. 72 (1976) 248]. Bovine serum albumin was used as the standard.
Parallel uptake experiments were performed using CHO/pSPORT control cells.
as §1, with “hSMVT” for “hSMVT (CHO/hSMVT)”, “glucose.” for “glucose, approximately 48 hours post-transfection.”, “Washing” for “Uptake was stopped by washing”, “three times” for “thrice”, “buffer stopped drug uptake.” for “buffer.”, “manufacturer's instructions.” for “Bradford technique [M. Bradford, A rapid and sensitive method of quantitation of microgram quantities of protein utilizing the principle of protein-dye binding, Anal. Biochem. 72 (1976) 248].”
as §1, with “Studies.” for “Studies”, “glucose.” for “glucose, approximately 48 hours post-transfection.”, “manufacturer's instructions.” for “Bradford technique [M. Bradford, A rapid and sensitive method of quantitation of microgram quantities of protein utilizing the principle of protein-dye binding, Anal. Biochem. 72 (1976) 248].”

in vitro = conditions: human, Caco-2
Protocol: as §4, §5, §6, §7, §8

rat small intestine = conditions: read-out: Km of biotin transport; literature; cited from earlier work
superoxide production = conditions: literature value; read-out: EC50 for superoxide production (Klinker et al., 1996); cited from earlier work
[4] = system: bovine brain microvessel endothelial cells (BBMECs); test: Transport (permeability) across BBMEC monolayers, in vitro BBB model; conditions: read-out: Km of transport and uptake; BBMECs
Protocol: Non-biotinylated PEGs were used in the control studies.
Isolation and culture of BBMECs. Bovine Brain Microvessel Endothelial Cells (BBMECs) were used as an in vitro model of BBB. BBMECs were isolated from bovine brain by a two-step enzymatic method and the cells were cultured on collagen coated Transwell™ plates or polystyrene plates in an atmosphere of 95% air and 5% CO2 at 37° C. Transendothelial electrical resistance (TEER) and several molecular markers were used to validate the integrity of the cell culture system.
The cells were cultured on 12-well Transwell™ filters for 7-8 days and transport was evaluated. […] All studies were performed at 37° C.

TAR RNA = conditions: unpublished results of the inventors
Jurkat T-cells = test: Uptake of DIG conjugates by Jurkat cells (DIG ELISA); type: cell-based, human; conditions: 333 nM, 30 min
Protocol: (§2) Uptake by HL-60, Jurkat and Peritoneal Cells. Human Jurkat T-cell growth conditions were the same as for HL-60 cells, except that the subcultivation ratio was 1:3. Jurkat cells (2×10^5) or fully differentiated HL-60 cells were washed twice with PBS and incubated in binding buffer (see above) with conjugate for 30 min at 37° C. Each conjugate (1 μg, dissolved at a concentration of 333 nM) was used in these experiments. Cells were lysed, the membranes and cell debris were removed by centrifugation (5 min. at 14,000×g) and the enzyme-linked immunosorbent assay (ELISA) for DIG was performed on the supernatant as described below. In order to study primary peritoneal cells, BALB/c mice were injected in the peritoneal cavity with 5 μg of PEG/A-DIG4-fMLF4 (n=3 mice), or PEG/A-DIG4 (n=4 mice). After 1 h, the cavity was flushed with medium and cells were collected and washed twice with cold PBS, as described above.
(§3) Cells were resuspended in 100 μL of PBS, containing 0.6% Tween 20, vortexed briefly and kept on ice for 30 min. […] Uptake of DIG was determined by ELISA of the supernatant. […] DIG content was proportional to the difference in absorbance at 495 nm and 450 nm. […] In order to account for the potential different amounts of peritoneal cells from each mouse, the results were normalized to the amount of protein, as measured with the Bradford assay (BioRad, Hercules Calif.).

[5] = system: peritoneal cells (macrophages); test: Uptake by peritoneal cells after intraperitoneal injection (DIG ELISA); type: in vivo, BALB/c mice
Protocol: as §2, §3

[6] = system: differentiated HL-60 cells; test: Intracellular calcium assay (45Ca release from intracellular stores); type: cell-based, human; conditions: differentiated HL-60 cells, calcium release; read-out: Cell Activation EC50
Protocol: Intracellular Calcium Assay. HL-60 cells (2×10^5 cells/mL) were grown in the presence of 1.3% DMSO for 5 days. For each time course experiment, 2×10^6 cells were resuspended in 5 mL of HBSS containing 2 mCi/mL of ^45CaCl2 as the sole source of calcium. After 90 min incubation at 37° C., cells were washed twice as above with cold HBSS. […] Cell pellets were treated with 0.5% Triton X-100/0.1 M NaOH and centrifuged in tubes containing 0.3 mL of 10% sucrose and radioactivity associated with the pellets was measured; this represents vesicle-associated ^45Ca. The top portion of the tube, which contained the cytoplasmic ^45Ca was also measured.

[7] = molecular target: T3, fMLF receptor on differentiated HL-60 cells (Homo sapiens, UniProt P21462); test: Competitive receptor binding assay with fML[3H]F
T3 construct: endogenous in cells; host or cells: HL-60 cells differentiated with 1.3% DMSO for 48 h; whole cells
T3 sequence (P21462 1-350): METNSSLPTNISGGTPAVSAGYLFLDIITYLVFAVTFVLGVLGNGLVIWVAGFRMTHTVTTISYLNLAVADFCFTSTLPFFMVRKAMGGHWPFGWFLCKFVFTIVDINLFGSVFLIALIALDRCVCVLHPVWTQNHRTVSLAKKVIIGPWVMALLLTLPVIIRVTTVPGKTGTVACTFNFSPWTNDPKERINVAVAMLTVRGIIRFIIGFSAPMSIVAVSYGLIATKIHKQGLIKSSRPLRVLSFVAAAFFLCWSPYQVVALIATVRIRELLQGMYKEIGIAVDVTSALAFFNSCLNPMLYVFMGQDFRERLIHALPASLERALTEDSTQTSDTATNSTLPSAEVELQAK
Protocol: Competitive Receptor Binding Assay. HL-60 cells were propagated in RPMI 1640 supplemented with 2 mM L-glutamine and 10% (v/v) heat-inactivated fetal bovine serum, and were subcultured every 3 days at a ratio of 1:4. Cells were grown at 37° C. in an atmosphere of 5% CO2. Dimethyl sulfoxide (DMSO, 1.3%) was added to the culture (3×10^5 cells/mL) 48 h before the binding assay to initiate cellular differentiation. […] The cells were incubated for 15 min at 37° C. with gentle shaking. They were collected by centrifugation at 3,000 g for 5 min at room temperature. The supernatant was removed and cells were resuspended in 0.1 mL of binding buffer and carefully added to the very top of tubes (Denville Scientific, South Plainfield, N.J., catalog #C19002) that contained 0.3 mL of 10% sucrose. They were centrifuged for 5 min. The cells settled to the bottom and any unbound ligand remained in the middle of the tube. The tubes were placed in dry ice for 5 min, and then their bottoms were cut off to collect the cells. Cell-bound and free radioactivity were determined by liquid scintillation counting.

[8] = system: differentiated HL-60 cells; test: Uptake of DIG conjugates by differentiated HL-60 cells (DIG ELISA); type: cell-based, human; conditions: 333 nM, 30 min, 37° C.
Protocol: as §2, §3

O=C(O)CCCC[C@@H]1SC[C@@H]2NC(=O)N[C@@H]21 [Biotin, biotin]
Km [1]: 19.7 µM
Km (Caco-2 cell monolayers): 11.3 µM
Km [2]: 5.26 µM
inhibition of RI-K(biotin)-Tat9 uptake (SMVT; 0.1 μM RI-K(biotin)-Tat9, inhibitor 50 μM): significantly inhibited; also recorded: significantly lowered (p<0.001)
inhibition of biotin-PEG-3400 uptake (SMVT; 0.1 μM biotin-PEG-3400, inhibitor 50 μM): significantly (p<0.01) inhibited
inhibition of PEG:(RI-K(biotin)-Tat9)8 uptake (SMVT; 0.1 μM conjugate, inhibitor 50 μM): significantly lower (p<0.05)
uptake in CHO/pSPORT cells (CHO/pSPORT cells): 23.73 pmol/mg protein/10 min
Pm, passive uptake component [3]: 3.50 (3.0) pmol/mg protein/10 min
Jmax ([3]; uptake in CHO/hSMVT cells): 174.61±47.53 pmol/mg protein/10 min and 174.61 (47.53) pmol/mg protein/10 min
Papp at 105 min (in vitro): 3.35 ×10⁻⁶ cm/s
Km (rat small intestine): 8.77 µM

CSCC[C@H](NC=O)C(=O)N[C@@H](CC(C)C)C(=O)N[C@@H](Cc1ccccc1)C(=O)O [fMLF, N-formyl-methionine-leucine-phenylalanine]
EC50 (superoxide production): 15 to 30 nM

N-acetyl-D-Lys:(ε-biotin)-D-Arg-D-Arg-D-Arg-D-Gln-D-Arg-D-Arg-D-Lys-D-Lys-D-Arg-NH2 [RI-K(biotin)-Tat9]
Km (Caco-2 cell monolayers): 3.27 µM
Jmax without Pm component in the regression model ([3]; CHO/hSMVT): 675.95 pmol/mg protein/10 min
Pm, passive uptake component [3]: 32.90 (4.48) pmol/mg protein/10 min
uptake of substrate alone (control of inhibition study) ([3]; CHO/hSMVT, 0.1 μM, 10 min): ~41.93 pmol/mg protein/10 min
uptake, fold greater than RI-K-Tat9 ([3]; CHO/hSMVT, at 10 μM): ~500 fold
Jmax ([3]; uptake in CHO/hSMVT cells): 227.26±29.33 pmol/mg protein/10 min and 227.26 pmol/mg protein/10 min and 227.26 (29.33) pmol/mg protein/10 min
Km ([3]; uptake in CHO/hSMVT cells, 10 min, 37° C.): 1 ± 0.13 µM
Km [4]: ~40 µM
TAR RNA binding activity (TAR RNA): comparable TAR RNA binding activity to Tat9-K(biotin)

PEG/A-fMLF4-DIG4: linear PEG-aspartate copolymer bearing four fMLF and four digoxigenin residues
conjugate accumulated (Jurkat T-cells): 1.3%
administered conjugate taken up by peritoneal cells ([5]; BALB/c mice, 5 μg i.p., 1 h): 17%
DIG accumulation, fold over non-targeted conjugate PEG/A-DIG8 ([5]; non-activated peritoneal cells): ~5 fold
EC50 [6]: 5.9 nM
Kd ([7]; Kd multiplied by average number of fMLF moieties, read-out: Relative Avidity Kd/fMLP): 4.8 nM
Kd ([7]; differentiated HL-60 cells, competition with fML[3H]F, read-out: Avidity Kd): 1.2 nM
Avidity Activation EC50/Kd ([7]; ratio of EC50 (calcium) to Kd): 4.92
conjugate bound and/or internalized [8]: 18%
